Test results: patent US20240067651A1 (Biohaven Therapeutics Ltd., priority 2019, published 2024)

Experiments:
[1] = Caco-2 Permeability Assay; format: in vitro ADME, human; details: human
Summary of the method: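 Bidirectional transport at 37 °C for 90 min, 10 μM donor concentration, with or without Pgp inhibitor, across 21-day Caco-2 monolayers with TEER >600 […] in HEPES-buffered HBSS, pH 7.4. LC-MS/MS of donor and receiver samples gives Papp, B→A/A→B efflux ratio and mass recovery.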

[2] = Stability in Simulated Intestinal Fluid (SIF); format: in vitro ADME; design: key: % parent compound remaining relative to 0-minute sample
Summary of the method: (§1)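 Percent of parent remaining relative to time zero was measured by LC-MS/MS over 0–60 min at 37 °C, 150 rpm. Test compound was 2 μg/mL final in pepsin-containing SGF, pH 1.2, or pancreatin-containing SIF, pH 6.8. Degradation half-life was derived from the log-linear decay where enough points allowed.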

Plasma Stability = format: in vitro ADME, human
Summary of the method: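 Parent compound quantified by LC-MS/MS after acetonitrile precipitation, reported as percent of control remaining (triplicate). Incubation: 1 hour, 37° C, fresh human plasma, compound at 1 μM.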

[3] = Stability in Simulated Gastric Fluid (SGF); format: in vitro ADME; design: key: % parent compound remaining relative to 0-minute sample
Summary of the method: as §1

[4] = bare number, unit or time not given
[5] = Caco-2, pH 7.4, Caco-2 monolayer
[6] = simulated intestinal fluid, remaining at 1 h
[7] = simulated gastric fluid, remaining at 1 h

Structure (SMILES)	Papp at 90 min, 10 µM ([1]; Caco-2, pH 7.4) [×10⁻⁶ cm/s]	SIF ([2]; % remaining @ 1 h)	human Plasma stability (Plasma Stability; % remaining @ 1 h)	SGF ([3]; % remaining @ 1 h)	SIF [2, 4]	SGF [3, 4]	Papp at 90 min, 10 µM [1, 5] [×10⁻⁶ cm/s]	SIF [2, 6] [% remaining]	human Plasma stability (Plasma Stability; human plasma, remaining at 1 h) [% remaining]	SGF [3, 7] [% remaining]
CC(C)OCCn1c(=S)[nH]c(=O)c2c1ccn2COC(=O)CCCCOC(=O)CN.O=C(O)C(F)(F)F [Example 330, trifluoroacetic acid {4-oxo-1-[2-(propan-2-yloxy)ethyl]-2-sulfanylidene-1H,2H,3H,4H,5H-pyrrolo[3,2-d]pyrimidin-5-yl}methyl 5-[(2-aminoacetyl)oxy]pentanoate]	0.641	7% @ 1 h	2% @ 1 h	84% @ 1 h						
CC(C)OCCn1c(SCOC(=O)CCCCOC(=O)CN)nc(=O)c2c1ccn2COC(=O)CCCCOC(=O)CN.O=C(O)C(F)(F)F.O=C(O)C(F)(F)F [Example 331, bis (trifluoroacetic acid) ({5-[{{5-[(2-aminoacetyl)oxy]pentanoyl}oxy)meth-yl]-4-oxo-1-[2-(propan-2-yloxy)ethyl]-1H,4H,5H-pyrrolo[3,2-d]pyrimidin-2-yl}sulfanyl)methyl 5-[(2-aminoacetyl)oxy]pentanoate]	3.68	1% @ 1 h	1% @ 1 h	93% @ 1 h						
CC(C)OCCn1c(=S)n(COC(=O)CCCCOC(=O)CN)c(=O)c2c1ccn2COC(=O)CCCCOC(=O)CN.O=C(O)C(F)(F)F.O=C(O)C(F)(F)F [Example 332, bis (trifluoroacetic acid) {3-[{{5-[(2-aminoacetyl)oxy]pentanoyl}oxy)meth-yl]-4-oxo-1-[2-(propan-2-yloxy)ethyl]-2-sulfanylidene-1H,2H,3H,4H,5H-pyrrolo[3,2-d]pyrimidin-5-yl}methyl 5-[(2-aminoacetyl)oxy]pentanoate]	< 0.073	4% @ 1 h	4% @ 1 h	91% @ 1 h						
CC(C)OCCn1c(=S)[nH]c(=O)c2c1ccn2COC(=O)CCCCOC(=O)[C@@H](NC(=O)OC(C)(C)C)C(C)C [Example 333, {4-oxo-1-[2-(propan-2-yloxy)ethyl]-2-sulfanylidene-1H,2H,3H,4H,5H-pyrrolo[3,2-d]pyrimidin-5-yl}methyl 5-{[(2S)-2-{[(tert-butoxy)carbonyl]amino}-3-methylbutanoyl]oxy}pentanoate]	< 0.072	4% @ 1 h	5% @ 1 h	98% @ 1 h						
CC(C)OCCn1c(=S)[nH]c(=O)c2c1ccn2COC(=O)CCCCOC(=O)[C@H](Cc1ccccc1)NC(=O)OC(C)(C)C [Example 334, {4-oxo-1-[2-(propan-2-yloxy)ethyl]-2-sulfanylidene-1H,2H,3H,4H,5H-pyrrolo[3,2-d]pyrimidin-5-yl}methyl 5-{[(2S)-2-{[(tert-butoxy)carbonyl]amino}-3-phenylpropanoyl]oxy}pentanoate]	6.26		58% remaining		2	90				
CC(C)OCCn1c(=S)[nH]c(=O)c2c1ccn2COC(=O)CCCCOC(=O)[C@@H](N)C(C)C.O=C(O)C(F)(F)F [Example 335, trifluoroacetic acid {4-oxo-1-[2-(propan-2-yloxy)ethyl]-2-sulfanylidene-1H,2H,3H,4H,5H-pyrrolo[3,2-d]pyrimidin-5-yl}methyl 5-{[(2S)-2-amino-3-methylbutanoyl]oxy}pentanoate]	3.32		3% remaining		9	99				
CC(C)OCCn1c(SCO)nc(=O)c2[nH]ccc21 [Example 336, 2-[(hydroxymethyl)sulfanyl]-1-[2-(propan-2-yloxy)ethyl]-1H,4H,5H-pyrrolo[3,2-d]pyrimidin-4-one]	1.82		73% remaining		6	93				
CC(C)OCCn1c(=S)n(COC(=O)CCCCOC(=O)[C@H](N)C(C)C)c(=O)c2c1ccn2COC(=O)CCCCOC(=O)[C@H](N)C(C)C.O=C(O)C(F)(F)F.O=C(O)C(F)(F)F [Example 339, bis(trifluoroacetic acid) (3-{[(5-{[(2R)-2-amino-3-methylbutanoyl]oxy}pentanoyl)oxy]methyl}-4-oxo-1-[2-(propan-2-yloxy)ethyl]-2-sulfanylidene-1H,2H,3H,4H,5H-pyrrolo[3,2-d]pyrimidin-5-yl)methyl 5-{[(2R)-2-amino-3-methylbutanoyl]oxy}pentanoate]	3.86		44% remaining		72	99				
CC(C)OCCn1c(=S)[nH]c(=O)c2c1ccn2COC(=O)CCCCOC(=O)[C@@H](N)Cc1ccccc1.O=C(O)C(F)(F)F [Example 340, trifluoroacetic acid {4-oxo-1-[2-(propan-2-yloxy)ethyl]-2-sulfanylidene-1H,2H,3H,4H,5H-pyrrolo[3,2-d]pyrimidin-5-yl}methyl 5-{[(2S)-2-amino-3-phenylpropanoyl]oxy}pentanoate]	0.644		4% remaining		99	100				
CC(C)OCCn1c(=S)[nH]c(=O)c2c1ccn2COC(=O)CCCCOC(=O)[C@H](N)Cc1ccccc1.O=C(O)C(F)(F)F [Example 341, trifluoroacetic acid {4-oxo-1-[2-(propan-2-yloxy)ethyl]-2-sulfanylidene-1H,2H,3H,4H,5H-pyrrolo[3,2-d]pyrimidin-5-yl}methyl 5-{[(2R)-2-amino-3-phenylpropanoyl]oxy}pentanoate]	0.259		1% remaining		33	99				
CC(C)C[C@H](N)C(=O)OCCCCC(=O)OCn1ccc2c1c(=O)[nH]c(=S)n2CCOC(C)C.O=C(O)C(F)(F)F [Example 345, trifluoroacetic acid 5-oxo-5-({4-oxo-1-[2-(propan-2-yloxy)ethyl]-2-sulfanylidene-1H,2H,3H,4H,5H-pyrrolo[3,2-d]pyrimidin-5-yl}methoxy)pentyl (2S)-2-amino-4-methylpentanoate]	< 0.0662	2% remaining at	77% remaining	71% remaining						
CC(C)C[C@@H](NC(=O)OC(C)(C)C)C(=O)OCCCCC(=O)OCn1ccc2c1c(=O)[nH]c(=S)n2CCOC(C)C [Example 347, 5-oxo-5-({4-oxo-1-[2-(propan-2-yloxy)ethyl]-2-sulfanylidene-1H,2H,3H,4H,5H-pyrrolo[3,2-d]pyrimidin-5-yl}methoxy)pentyl (2R)-2-{[(tert-butoxy)carbonyl]amino}-4-methylpentanoate]	1.06	4% remaining	16% remaining	98% remaining						
CC(C)C[C@@H](N)C(=O)OCCCCC(=O)OCn1ccc2c1c(=O)[nH]c(=S)n2CCOC(C)C.O=C(O)C(F)(F)F [Example 350, trifluoroacetic acid 5-oxo-5-({4-oxo-1-[2-(propan-2-yloxy)ethyl]-2-sulfanylidene-1H, 2H,3H,4H,5H-pyrrolo[3,2-d]pyrimidin-5-yl}methoxy)pentyl (2R)-2-amino-4-methylpentanoate]							0.0782	52	44	29
CSCC[C@H](NC(=O)OC(C)(C)C)C(=O)OCCCCC(=O)OCn1ccc2c1c(=O)[nH]c(=S)n2CCOC(C)C [Example 352, {4-oxo-1-[2-(propan-2-yloxy)ethyl]-2-sulfanylidene-1H,2H,3H,4H,5H-pyrrolo[3,2-d]pyrimidin-5-yl}methyl 5-{[(2S)-2-{[(tert-butoxy)carbonyl]amino}-4-(methylsulfanyl)butanoyl]oxy}pentanoate]							2.03	9	9	92
CSCC[C@H](N)C(=O)OCCCCC(=O)OCn1ccc2c1c(=O)[nH]c(=S)n2CCOC(C)C.O=C(O)C(F)(F)F [Example 353, trifluoroacetic acid {4-oxo-1-[2-(propan-2-yloxy)ethyl]-2-sulfanylidene-1H,2H,3H,4H,5H-pyrrolo[3,2-d]pyrimidin-5-yl}methyl 5-{[(2S)-2-amino-4-(methylsulfanyl)butanoyl]oxy}pentanoate]							0.549	66	3	33
CC(C)OCCn1c(=S)[nH]c(=O)c2c1ccn2COC(=O)CCCOC(=O)[C@H](NC(=O)OC(C)(C)C)C(C)C [Example 355, 4-oxo-4-({4-oxo-1-[2-(propan-2-yloxy)ethyl]-2-sulfanylidene-1H,2H,3H,4H,5H-pyrrolo[3,2-d]pyrimidin-5-yl}methoxy)butyl (2R)-2-{[(tert-butoxy)carbonyl]amino}-3-methylbutanoate]							2.16	100	43	99
CC(C)OCCn1c(=S)[nH]c(=O)c2c1ccn2COC(=O)CCCOC(=O)[C@H](N)C(C)C [Example 356, trifluoroacetic acid 4-oxo-4-({4-oxo-1-[2-(propan-2-yloxy)ethyl]-2-sulfanylidene-1H,2H,3H,4H,5H-pyrrolo[3,2-d]pyrimidin-5-yl}methoxy)butyl (2R)-2-amino-3-methylbutanoate]							11.3	25	5	99
